Measured values from PubChem BioAssay (NCI).
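Where inhibition never reached the appropriate level, the endpoint shown equals the highest concentration tested. Otherwise, values were interpolated linearly from a five-concentration, 48-hour dose response in 96-well plates. At the GI50, growth is halved. The concentration for full growth arrest is given as TGI.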

Experiments:
Assay in all cases: NCI anticancer screen, dose series, 48 h
BT-549 breast = test system: BT-549 breast
SK-MEL-5 melanoma = test system: SK-MEL-5 melanoma
SF-539 CNS = test system: SF-539 CNS
SK-MEL-2 melanoma = test system: SK-MEL-2 melanoma
SNB-19 CNS = test system: SNB-19 CNS
SR leukemia = test system: SR leukemia
UO-31 renal = test system: UO-31 renal
SK-MEL-28 melanoma = test system: SK-MEL-28 melanoma

Row | SMILES | GI50 (BT-549 breast) | TGI (BT-549 breast) | GI50 (SK-MEL-5 melanoma) | TGI (SK-MEL-5 melanoma) | GI50 (SF-539 CNS) | TGI (SF-539 CNS) | GI50 (SK-MEL-2 melanoma) | TGI (SK-MEL-2 melanoma) | GI50 (SNB-19 CNS) | TGI (SNB-19 CNS) | GI50 (SR leukemia) | TGI (SR leukemia) | GI50 (UO-31 renal) | TGI (UO-31 renal) | GI50 (SK-MEL-28 melanoma) | TGI (SK-MEL-28 melanoma)
1 | Cn1cc(C2=C(c3cccc(OC[C@@H](O)CO)c3)C(=O)NC2=O)c2ccccc21 | 12.3 µM | > 25 µM | > 8.72 µM | > 25 µM | > 19.4 µM | > 25 µM | > 25 µM | > 25 µM | > 25 µM | > 25 µM | > 11.2 µM | > 25 µM | > 19.1 µM | > 25 µM | > 25 µM | > 25 µM
2 | CCCCCO/N=C\c1c2c(O)c3c(O)c(C)c4c(c3c1O)C(=O)C(C)(O/C=C\C(OC)C(C)C(OC(C)=O)C(C)C(O)C(C)C(O)C(C)/C=C\C=C(\C)C(=O)N2)O4 (centres undefined) |  |  | 1.5 µM | 2.82 µM | 1.98 µM | 3.86 µM |  |  | 1.67 µM | 3.19 µM | 2.88 µM | 7.34 µM |  |  | 1.66 µM | 3.02 µM
3 | COc1ccc(/C=C(\C#N)n2nnc3c(F)cccc32)cc1 | 0.433 µM | > 34.6 µM | 0.47 µM | > 33.7 µM | 0.322 µM | 1.48 µM | 0.504 µM | > 49.9 µM | 0.412 µM | 18.2 µM | 0.161 µM | > 100 µM | 0.573 µM | > 100 µM | 1.28 µM | > 100 µM
4 | Cc1cc[n+]2c(c1)-c1cc(C)cc[n+]1CC2 |  | > 100 µM |  | > 100 µM |  | > 100 µM |  | > 100 µM |  | > 100 µM |  | > 100 µM |  | > 100 µM |  | > 100 µM
5 | O=C(O)c1cccc(C(=O)O)c1S(=O)Cc1ccccc1 (centres undefined) |  | > 100 µM |  | > 100 µM |  | > 100 µM |  | > 100 µM |  | > 100 µM |  | > 100 µM |  | > 100 µM |  | > 100 µM
6 | COC(=O)[C@H]1CCCN1C(=O)[C@H]1CCCN1C(=O)[C@@H](Cc1c[nH]c2ccccc12)NC(=S)Nc1cc(C(F)(F)F)cc(C(F)(F)F)c1 | 2.47 µM | 5.59 µM | 1.7 µM | 3.23 µM | 1.92 µM | 3.61 µM | 1.95 µM | 3.55 µM | 2.14 µM | 5.72 µM | 2.53 µM | 5.65 µM | 2.16 µM | 6.31 µM | 2.07 µM | 4.17 µM
7 | C[C@]12CC[C@@H]3c4cc(OC(F)F)c(OS(N)(=O)=O)cc4CC[C@H]3[C@@H]1CC[C@@H]2O | 0.901 µM | 16.9 µM | 0.315 µM | 3.56 µM | 0.333 µM | 4.58 µM | 3.34 µM | 38.7 µM | 0.532 µM | 25.6 µM | 0.303 µM | > 100 µM | 0.769 µM | 26.6 µM | 1.43 µM | 24.6 µM
8 | O=C1c2sccc2-c2cccc3cccc1c23 (tested in a mixture with another compound) |  | 25.7 µM |  |  |  | 32.2 µM |  | > 100 µM |  | 35 µM |  | 2.02 µM |  | 78.3 µM |  | > 100 µM
9 | C(=N/N(Cc1ccccc1)Cc1ccccc1)/c1ccccc1 | > 100 µM | > 100 µM | 55.4 µM | > 100 µM | > 100 µM | > 100 µM | 25 µM | 72.6 µM | > 100 µM | > 100 µM |  |  | > 100 µM | > 100 µM | > 100 µM | > 100 µM
10 | CC1=C(CC(=O)c2cccc([N+](=O)[O-])c2)C(=O)c2ccccc2C1=O | 13.2 µM | 26.5 µM | 1.67 µM | 3.73 µM | 3.02 µM | 10.9 µM |  |  | > 100 µM | > 100 µM | 3.21 µM | 12.6 µM | 10.7 µM | 28.8 µM | 3.54 µM | 13.9 µM
11 | CC1(C)CC(=O)C2=C(C1)OC(N)=C(c1nc(-c3ccccc3)cs1)C2c1ccc(Br)cc1 (centres undefined) |  |  | 38.7 µg/mL | > 150 µg/mL | 94.8 µg/mL | > 150 µg/mL | 79 µg/mL | > 150 µg/mL | > 150 µg/mL | > 150 µg/mL | 112 µg/mL | > 150 µg/mL |  |  | 93.8 µg/mL | > 150 µg/mL
12 | Cc1ccc(-c2nc([P+](c3ccccc3)(c3ccccc3)c3ccccc3)c(S(=O)(=O)c3ccc(C)cc3)o2)cc1 | 1.61 µM | 3.1 µM | 1.81 µM | 3.4 µM | 1.58 µM | 2.92 µM | 2.17 µM | 4.41 µM | 1.64 µM | 3.3 µM |  |  | 1.32 µM | 2.6 µM | 1.7 µM | 3.09 µM
13 | CN(CCNCc1ccccn1)CCNCc1ccccn1 | 1.98 µM | 4.63 µM | 1.75 µM | 3.16 µM | 2.06 µM | 5.33 µM |  |  | 5.29 µM | 18.5 µM | 3.71 µM | 43 µM | 1.73 µM | 3.9 µM | 2.64 µM | 8.17 µM
14 | COc1cc2c(cc1OC)-c1ncc3c(OC)c(OC)c(OC)cc3c1C2 |  |  | 23.5 µM | > 100 µM |  |  | 0.0541 µM | 23.5 µM | 23 µM | 50 µM | 0.609 µM | 2.47 µM | 3.41 µM | 15.7 µM | > 100 µM | > 100 µM
15 | O=[N+]([O-])c1ccc(N2CCOCC2)c2c1no[n+]2[O-] | 1.64 µM | 6.25 µM | 1.41 µM | 3.34 µM | 1.07 µM | 2.27 µM | 2.06 µM | 5.11 µM | 3.74 µM | 16.4 µM |  |  | 1.42 µM | 5.07 µM | 4.32 µM | 16 µM
16 | N#CCCN1C/C(=C/c2ccc(Cl)cc2)C(=O)/C(=C/c2ccc(Cl)cc2)C1 | 1.24 µM | 2.65 µM | 1.59 µM | 2.98 µM | 1.32 µM | 2.74 µM | 2.19 µM | 4.88 µM | 1.31 µM | 2.72 µM |  |  | 1.39 µM | 2.77 µM | 1.91 µM | 3.9 µM
17 | CC(C)(O)CNc1nc(Nc2ccnc(C(F)(F)F)c2)nc(-c2cccc(C(F)(F)F)n2)n1 | 16.7 µM | 39.7 µM | 13.2 µM | 26.3 µM | 16.6 µM | 42.7 µM |  |  | 34.4 µM | > 100 µM | 18.3 µM | 90.9 µM | 19.9 µM | 50.4 µM | 17.8 µM | 36.2 µM
